This is an account of results in ChEMBL document CHEMBL4190198, “Celastrofurans A-G: Dihydro-β-agarofurans from the Australian Rainforest Vine Celastrus subspicata and Their Inhibitory Effect on Leucine Transport in Prostate Cancer Cells” (J Nat Prod, 2017).

The nature of this assay: Inhibition of L-type amino acid transporter in human LNCAP cells assessed as reduction in [3H]-L-Leucine uptake after 15 mins by liquid scintillation counting method. It counts as cell-based.

For the compound `CC(=O)O[C@@H]1C[C@@H](C)[C@@]23C[C@@H](C[C@H](OC(=O)c4ccccc4)[C@]2(C)[C@H]1OC(=O)c1ccoc1)C(C)(C)O3`, the half-inhibitory concentration (IC50) came out at 34.5 µM.
Consider `C[C@@H]1CC[C@H](OC(=O)c2ccoc2)[C@@]2(C)[C@@H](OC(=O)c3ccccc3)C[C@@H]3C[C@]12OC3(C)C`, for which the concentration for half-maximal inhibition (IC50) was 19.7 µM.
For `CC(=O)O[C@@H]1C[C@@H](C)[C@@]23C[C@@H]([C@@H](O)[C@H](OC(=O)c4ccccc4)[C@]2(C)[C@H]1OC(=O)c1ccoc1)C(C)(C)O3`, the IC50 is 98.9 µM.
Next, `CC(=O)O[C@@H]1[C@@H]2C[C@]3(OC2(C)C)[C@H](C)C[C@@H](OC(C)=O)[C@H](OC(=O)c2ccoc2)[C@@]3(C)[C@H]1OC(=O)c1ccccc1`: 15.2 µM.
As for `CC(=O)O[C@@H]1C[C@@H](C)[C@@]23C[C@@H](C[C@H](OC(=O)c4ccccc4)[C@]2(C)[C@H]1OC(=O)c1ccccc1)C(C)(C)O3`, the IC50 is 7 µM.
Next, `C[C@@H]1CC[C@H](OC(=O)c2ccccc2)[C@@]2(C)[C@@H](OC(=O)c3ccccc3)C[C@@H]3C[C@]12OC3(C)C`: 27.6 µM; `CC(=O)O[C@@H]1C[C@@H](C)[C@@]23C[C@@H](C(=O)[C@H](OC(=O)c4ccccc4)[C@]2(C)[C@H]1OC(=O)c1ccoc1)C(C)(C)O3`: 13.4 µM; `CC(=O)O[C@@H]1C[C@@H](C)[C@@]23C[C@@H](C[C@H](OC(=O)c4ccoc4)[C@]2(C)[C@H]1OC(=O)c1ccoc1)C(C)(C)O3`: 75.3 µM.
Under `CC(=O)O[C@@H]1C[C@@H](C)[C@@]23C[C@@H]([C@@H](O)[C@H](OC(=O)c4ccccc4)[C@]2(C)[C@H]1OC(=O)c1ccccc1)C(C)(C)O3` stands 82.3 µM.

For orientation: IC50 means the point on the concentration scale where inhibition reaches its midpoint.
